Reference: US20020055512A1, “Compositions for delivery of a cortisol antagonist” (CORTENDO AB., priority 2000, published 2002)

Assay: Solubility of ketoconazole in lipid excipients (observation of undissolved crystals)
Assay type: physicochemical
Conditions: ambient room temperature; estimated
Description: The solubility of ketoconazole in glycerol monooleate was assessed at 37° C. according to the following method. 2 g samples of ketoconazole (USP) and glycerol monooleate were mixed together in various proportions and put on a magnetic stirrer at 37° C. Samples containing 1, 3 and 5 wt. % of ketoconazole were investigated for the observation of ketoconazole crystals. Samples containing 1 wt. % ketoconazole were completely dissolved after less than 18 h but more than 2 h. Samples containing 3 wt % ketoconazole were almost homogeneous after 48 h, after which no further change of the sample took place. […] Thus, at 37° C. ketoconazole has a limited solubility in glycerol monooleate. It is estimated to be between 1 and 3 wt. %.
The solubility of ketoconazole in oleic acid was assessed at ambient room temperature using the method described in Example 1. Samples containing 5, 10, 15 and 33 wt. % of ketoconazole were mixed with oleic acid and the appearance of undissolved ketoconazole was investigated after 24 and 48 h. After 24 hours samples containing 5 wt. % ketoconazole were completely dissolved and after 48 h samples containing 10 wt. % of ketoconazole were completely homogenous and all ketoconazole was dissolved. Thus the solubility of ketoconazole in oleic acid is estimated to be about 10 wt. %.

SMILES: CC(=O)N1CCN(c2ccc(OCC3COC(Cn4ccnc4)(c4ccc(Cl)cc4Cl)O3)cc2)CC1 (stereo not shown) [ketoconazole, Ketoconazole]
- solubility of ketoconazole in oleic acid: about 10 wt. %
